Target: T1, Sirt6 (Homo sapiens, UniProt Q8N6T7)
T1 construct: purchased CycLex CY-1156V2
Assay: Measurement of Sirt6 Activity (CycLex Sirt6 Deacetylase Fluorometric Assay Kit)
Format: biochemical
Settings: compound at 10 μM; fluorescence relative to the group without compound treatment (positive control group)
Procedure, shortened: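 Recombinant Sirt6 with fluoro-labelled acetyl-lysine peptide, NAD and lysylendopeptidase developer, compound added from 10× stock in PBS; 1 h at room temperature. Fluorescence read at ex 490/em 530 nm; activation expressed as fluorescence ratio relative to enzyme without compound.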

T1 sequence (Q8N6T7 whole entry): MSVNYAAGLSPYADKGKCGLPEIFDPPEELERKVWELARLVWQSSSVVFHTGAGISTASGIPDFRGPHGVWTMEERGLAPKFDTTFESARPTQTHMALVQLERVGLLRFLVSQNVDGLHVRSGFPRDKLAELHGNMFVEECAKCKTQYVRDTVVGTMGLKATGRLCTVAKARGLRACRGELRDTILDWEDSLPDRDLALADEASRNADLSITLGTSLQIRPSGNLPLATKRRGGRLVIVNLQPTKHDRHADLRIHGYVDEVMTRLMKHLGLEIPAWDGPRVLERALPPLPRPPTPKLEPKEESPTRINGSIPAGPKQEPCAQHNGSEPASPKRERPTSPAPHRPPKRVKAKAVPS

SMILES: Cl.NC1CCCCN(c2nn(C3CCCCC3)c(=O)c3ccccc23)C1 (centres unmarked) [Example 143, 4-(3-Aminoazepan-1-yl)-2-cyclohexyl phthalazin-1(2H)-one-hydrochloride]
- Sirt6 Activity (% activity, 10 μM): 238.3 % activity

SMILES: CCS(=O)(=O)NC1CCCCN(c2nn(C3CCCCC3)c(=O)c3ccccc23)C1 (centres unmarked) [Example 144, N-(1-(3-Cyclohexyl-4-oxo-3,4-dihydrophthalazin-1-yl)azepan-3-yl)ethanesulfonamide]
- Sirt6 Activity (% activity, 10 μM): 164.1 % activity

SMILES: CCS(=O)(=O)Nc1cccc(-c2nn(C3CCC(C)CC3)c(=O)c3ccccc23)c1 (centres unmarked) [Example 145, N-(3-(3-(4-Methylcyclohexyl)-4-oxo-3,4-dihydrophthalazin-1-yl)phenyl)ethanesulfonamide]
- Sirt6 Activity (% activity, 10 μM): 136.6 % activity

SMILES: Cl.N[C@H]1CCCN(c2nn(C3CCCCC3)c(=O)c3ccccc23)C1 [Example 146, (S)-4-(3-Aminopiperidin-1-yl)-2-cyclohexylphthalazin-1(2H)-one-hydrochloride]
- Sirt6 Activity (% activity, 10 μM): 135.2 % activity

SMILES: CCS(=O)(=O)N[C@H]1CCCN(c2nn(C3CCCCC3)c(=O)c3ccccc23)C1 [Example 147, (S)—N-(1-(3-Cyclohexyl-4-oxo-3,4-dihydrophthalazin-1-yl)piperidin-3-yl)ethanesulfonamide]
- Sirt6 Activity (% activity, 10 μM): 127.7 % activity

SMILES: Cl.NC1CCCCN(c2nn(-c3ccc(F)cc3)c(=O)c3ccccc23)C1 (centres unmarked) [Example 148, 4-(3-Aminoazepan-1-yl)-2-(4-fluorophenyl)phthalazin-1(2H)-one-hydrochloride]
- Sirt6 Activity (% activity, 10 μM): 184.3 % activity

SMILES: CCS(=O)(=O)Nc1cccc(-c2cn(-c3ccc(F)cc3)c(=O)c3ccncc23)c1 [Example 149, N-(3-(2-(4-Fluorophenyl)-1-oxo-1,2-dihydropyrido[3,4-d]pyridin-4-yl)phenyl)ethanesulfonamide]
- Sirt6 Activity (% activity, 10 μM): 114.9 % activity

SMILES: CCS(=O)(=O)Nc1cccc(-c2nn(-c3ccc(F)cc3)c(=O)c3cccc(C)c23)c1 [Example 150, N-(3-(3-(4-Fluorophenyl)-8-methyl-4-oxo-3,4-dihydrophthalazin-1-yl)phenyl)ethanesulfonamide]
- Sirt6 Activity (% activity, 10 μM): 104.7 % activity

SMILES: CC(C)(C(=O)O)c1cccc(-c2nn(-c3ccc(F)cc3)c(=O)c3ccccc23)c1 [Example 152, 2-(3-(3-(4-Fluorophenyl)-4-oxo-3,4-dihydrophthalazin-1-yl)phenyl)-2-methylpropanoic Acid]
- Sirt6 Activity (% activity, 10 μM): 195.5 % activity

SMILES: CNC(=O)C(C)(C)c1cccc(-c2nn(-c3ccc(F)cc3)c(=O)c3ccccc23)c1 [Example 153, 2-(3-(3-(4-Fluorophenyl)-4-oxo-3,4-dihydrophthalazin-1-yl)phenyl)-N,2-dimethylpropanamide]
- Sirt6 Activity (% activity, 10 μM): 280.4 % activity

SMILES: CS(=O)(=O)c1cccc(-c2nn(C3CCCCC3)c(=O)c3ccccc23)c1 [Example 154, 2-Cyclohexyl-4-(3-(methylsulfonyl)phenyl)phthalazin-1(2H)-one]
- Sirt6 Activity (% activity, 10 μM): 263.7 % activity

SMILES: Cl.N[C@H]1CCCCN(c2nn(C3CCCCC3)c(=O)c3ccccc23)C1 [Example 155, (S)-4-(3-Aminoazepan-1-yl)-2-cyclohexyl phthalazin-1(2H)-one-hydrochloride]
- Sirt6 Activity (% activity, 10 μM): 230.9 % activity

SMILES: CN[C@H]1CCCCN(c2nn(C3CCCCC3)c(=O)c3ccccc23)C1.Cl [Example 156, (S)-2-Cyclohexyl-4-(3-(methylamino)azepan-1-yl)phthalazin-1(2H)-one-hydrochloride]
- Sirt6 Activity (% activity, 10 μM): 223.9 % activity

SMILES: Cl.N[C@H]1CCCCN(c2nn(-c3ccc(F)cc3F)c(=O)c3ccccc23)C1 [Example 157, (S)-4-(3-Aminoazepan-1-yl)-2-(2,4-difluorophenyl)phthalazin-1(2H)-one-hydrochloride]
- Sirt6 Activity (% activity, 10 μM): 244.1 % activity

SMILES: Cl.N[C@H]1CCCCN(c2nn(-c3ccc(F)cc3)c(=O)c3ccccc23)C1 [Example 158, (S)-4-(3-Aminoazepan-1-yl)-2-(4-fluorophenyl)phthalazin-1(2H)-one-hydrochloride]
- Sirt6 Activity (% activity, 10 μM): 164.7 % activity

SMILES: Cl.N[C@@H]1CCCCN(c2nn(C3CCCCC3)c(=O)c3ccccc23)C1 [Example 159, (R)-4-(3-Aminoazepan-1-yl)-2-cyclohexyl phthalazin-1(2H)-one-hydrochloride]
- Sirt6 Activity (% activity, 10 μM): 398.8 % activity

SMILES: CC(C)(C(=O)O)c1cccc(-c2nn(C3CCCCC3)c(=O)c3ccccc23)c1 [Example 160, 2-(3-(3-Cyclohexyl-4-oxo-3,4-dihydrophthalazin-1-yl)phenyl)-2-methylpropanoic Acid]
- Sirt6 Activity (% activity, 10 μM): 289.8 % activity

SMILES: O=C1OCCN1c1cccc(-c2nn(-c3ccc(F)cc3)c(=O)c3ccccc23)c1 [Example 161, 3-(3-(3-(4-Fluorophenyl)-4-oxo-3,4-dihydrophthalazin-1-yl)phenyl)oxazolidin-2-one]
- Sirt6 Activity (% activity, 10 μM): 177 % activity

SMILES: Cl.N[C@@H]1CCCCN(c2nn(-c3ccc(F)cc3)c(=O)c3ccccc23)C1 [Example 162, (R)-4-(3-Aminoazepan-1-yl)-2-(4-fluorophenyl)phthalazin-1(2H)-one-hydrochloride]
- Sirt6 Activity (% activity, 10 μM): 205.5 % activity

SMILES: CC(C)(C(N)=O)c1cccc(-c2nn(C3CCCCC3)c(=O)c3ccccc23)c1 [Example 163, 2-(3-(3-Cyclohexyl-4-oxo-3,4-dihydrophthalazin-1-yl)phenyl)-2-methylpropanamide]
- Sirt6 Activity (% activity, 10 μM): 277 % activity

SMILES: CNC(=O)C(C)(C)c1cccc(-c2nn(C3CCCCC3)c(=O)c3ccccc23)c1 [Example 164, 2-(3-(3-Cyclohexyl-4-oxo-3,4-dihydrophthalazin-1-yl)phenyl)-N,2-dimethylpropanamide]
- Sirt6 Activity (% activity, 10 μM): 285.5 % activity

SMILES: Cl.N[C@@H]1CCCCN(c2nn(-c3ccc(F)cc3F)c(=O)c3ccccc23)C1 [Example 165, (R)-4-(3-Aminoazepan-1-yl)-2-(2,4-difluorophenyl)phthalazin-1(2H)-one-hydrochloride]
- Sirt6 Activity (% activity, 10 μM): 277.1 % activity

SMILES: CC(C)(C(=O)O)c1cccc(-c2nn(-c3ccc(F)cc3F)c(=O)c3ccccc23)c1 [Example 166, 2-(3-(3-(2,4-Difluorophenyl)-4-oxo-3,4-dihydrophthalazin-1-yl)phenyl)-2-methylpropanoic Acid]
- Sirt6 Activity (% activity, 10 μM): 239.2 % activity

SMILES: Cl.NC1CCCCN(c2nn(-c3ccc(F)cc3F)c(=O)c3ccccc23)C1 (centres unmarked) [Example 167, 4-(3-Aminoazepan-1-yl)-2-(2,4-difluorophenyl)phthalazin-1(2H)-one-hydrochloride]
- Sirt6 Activity (% activity, 10 μM): 249.4 % activity

SMILES: CC(C)(C#N)c1cccc(-c2nn(-c3ccc(F)cc3F)c(=O)c3ccccc23)c1 [Example 168, 2-(3-(3-(2,4-Difluorophenyl)-4-oxo-3,4-dihydrophthalazin-1-yl)phenyl)-2-methylpropanenitrile]
- Sirt6 Activity (% activity, 10 μM): 155.7 % activity

SMILES: CC(C)(c1cccc(-c2nn(-c3ccc(F)cc3F)c(=O)c3ccccc23)c1)c1nnn[nH]1 [Example 169, 4-(3-(2-(1H-Tetrazol-5-yl)propan-2-yl)phenyl)-2-(2,4-difluorophenyl)phthalazin-1(2H)-one]
- Sirt6 Activity (% activity, 10 μM): 211.3 % activity
